Test results published in patent US10947263B2, “Cyclic dinucleotides as anticancer agents” (BRISTOL-MYERS SQUIBB COMPANY, priority 2017, dated 2021).
Where two headings read alike, the source gives them in different places.

Columns and labels:
[1] = system: STING / NF-κB pathway in THP1-Dual cells; assay: STING THP1 Reporter Assay, NF-κB pathway (SEAP, QUANTI-Blue); assay type: cell-based; conditions: 10% human plasma, 100% activation = 100 μM cGAMP, SEAP readout, read-out: THP1 Reporter Assays EC50 NFkB
Excerpt: (§1) THP1-Dual™ cells were derived from the human THP-1 monocyte cell line by stable integration of two inducible reporter constructs. To this end, THP1-Dual™ cells allow the simultaneous study of the […], by monitoring the activity of SEAP, and the IRF pathway by assessing the activity of a secreted luciferase (Lucia). Both reporter proteins are readily measurable in the cell culture supernatant when using QUANTI-Blue™, a SEAP detection reagent, and QUANTI-Luc™, a luciferase detection reagent.
(§2) THP1-Dual™ cells induce the activation of NF-κB in response to STING agonists. They also trigger the IRF pathway upon stimulation with STING agonists, such as cGAMP. Here, the THP-1-Dual cells were used to assess STING binders for function on the cellular level.
(§3) Serial dilutions of compounds in DMSO were added to low volume 384 well plates at 100 nl/well using an ECHO acoustic dispenser (Labcyte, model 550) to achieve final starting concentration of 100 μM in cell suspension. THP-1 Dual™ STING reporter cells (Invivogen, Dual cells cat #THPD-nfis) were added to the plates with compounds at 15,000 cells in 10 μL per well in RPMI media (Gibco, cat #11875) containing 10% human plasma in a low volume 384-well black wall clear bottom tissue culture plate (Corning, cat #3542) for SEAP assay and low volume solid white plate (Corning, cat #3826) for luciferase assay. One column of the plate was reserved for treatment with cGAMP at 100 μM for 100% activation calculation and one column for no treatment (DMSO only) for baseline activation. Plates were then incubated in 37 OC incubator at 5% CO2 for 20 hours.
(§4) In the SEAP assay, […] 2× QuantiBlue (Invivogen, cat #Rep-qb2) is added to 384 well black plates seeded with THP1 cells and incubated at 37° C. for 2 hours. Plates were read on the Envision (Perkin Elmer) at 620 nm wavelength (OD620). In the luciferase assay, 5 μl of Quantiluc (Invivogen, Rep-qlc2) is added to white 384 well plates seeded with THP1 cells and read at 5 minutes on the Envision (Perkin Elmer) using a luminescence protocol (RLU). For both cell lines, 100% activation was determined by value (RLU) of THP-1 Dual STING cells stimulated with 100 μM cGAMP (Invivogen, cat #TLRL-NACGA23-5).

[2] = biological target: T1, STING AQ (His-TVMV-S-hSTING(155-341)-G230A-R293Q) (Homo sapiens, UniProt Q86WV6, G230A/H232R/R293Q); assay: STING HTRF binding assay (time resolved FRET competition), STING AQ; conditions: 20 nM His-tagged STING AQ cytoplasmic domain, 40 nM fluorescein-labeled cGAMP analog probe, one hour; read-out: HTRF Binding Assays IC50 AQ
T1 construct: STING AQ: His-TVMV-S-hSTING(155-341)-G230A-R293Q
T1 sequence (Q86WV6 with tags, fused parts or gaps G230A/H232R/R293Q): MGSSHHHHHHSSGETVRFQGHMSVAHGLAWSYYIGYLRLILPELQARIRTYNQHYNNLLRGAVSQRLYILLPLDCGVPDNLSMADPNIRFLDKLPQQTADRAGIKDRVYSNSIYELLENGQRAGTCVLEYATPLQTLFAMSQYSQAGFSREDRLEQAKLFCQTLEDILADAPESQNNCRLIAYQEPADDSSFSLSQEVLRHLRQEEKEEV
Protocol: (§5) A time resolved FRET-based competition binding assay was used to assess test article binding to STING WT and STING AQ. His-tagged STING cytoplasmic domain (WT or AQ) at a concentration of 20 nM was incubated with 2.5 nM Tb-labeled anti-His antibody, test compound, and fluorescein-labeled cGAMP analog probe (BioLog cat. no. C195) at a concentration of 200 nM (STING WT) or 40 nM (STING AQ) in PBS containing 0.005% Tween-20 and 0.1% BSA for one hour. Fluorescence at 495 nm and 520 nm was measured using an EnVision microplate reader to quantify FRET between Tb-labeled anti-His antibody and fluorescein-labeled probe. Background was defined as the signal obtained in the absence of STING protein, and background subtracted FRET ratios were normalized to the maximum signal obtained in the absence of test compound. These values were converted to a percent inhibition. Percent inhibition was determined for test compounds at 11 concentrations. The IC50, defined as the concentration of competing test compound needed to reduce specific binding of the probe by 50%, was calculated using the 4 parameter logistic equation to fit the data
STING AQ: His-TVMV-S-hSTING(155-341)-G230A-R293Q • […] […] […] […] LRQEEKEEV (SEQ ID NO:2)

[3] = system: STING / IRF pathway in THP1-Dual cells; assay: STING THP1 Reporter Assay, IRF pathway (secreted Lucia luciferase, QUANTI-Luc); assay type: cell-based; conditions: 10% human plasma, 100% activation = 100 μM cGAMP, luciferase readout, read-out: THP1 Reporter Assays EC50 IRF3
Excerpt: as §1, §2, §3, §4

[4] = biological target: T2, STING WT (His-TVMV-S-hSTING(155-341)-H232R) (Homo sapiens, UniProt Q86WV6, H232R); assay: STING HTRF binding assay (time resolved FRET competition), STING WT; conditions: 20 nM His-tagged STING WT cytoplasmic domain, 200 nM fluorescein-labeled cGAMP analog probe, one hour; read-out: HTRF Binding Assays IC50 WT
T2 construct: STING WT: His-TVMV-S-hSTING(155-341)-H232R
T2 sequence (Q86WV6 with tags, fused parts or gaps H232R): as the sequence (Q86WV6 with tags, fused parts or gaps G230A/H232R/R293Q) above, with A99G, Q162R counted along it
Protocol: as §5
STING WT: His-TVMV-S-hSTING(155-341)-H232R • […] […] […] […] LRQEEKEEV (SEQ ID NO:1)

SMILES | EC50 ([1]; 20 hours) [µM] | IC50 [2] [µM] | EC50 ([3]; 20 hours) [µM] | IC50 [4] [µM] | EC50 ([1]; Homo sapiens, THP1-Dual, 20 h) [µM] | EC50 ([3]; Homo sapiens, THP1-Dual, 20 h) [µM]
O=[N+]([O-])c1cccc2c1nnn2[C@@H]1O[C@@H]2COP(=O)(S)O[C@H]3[C@@H](F)[C@H](n4cnc5c4ncn4ccnc54)O[C@@H]3COP(=O)(S)O[C@@H]1[C@@H]2O (single isomer, unassigned) [Example 15-2] | 96.8 | 0.05 | 63.4 | 1.75 |  | 
Nc1ncnc2c1ncn2[C@@H]1O[C@@H]2COP(=O)(S)O[C@@H]3[C@H](F)[C@@H](COP(=O)(S)O[C@H]2[C@H]1F)O[C@H]3n1nnc2c([N+](=O)[O-])cccc21 (single isomer, unassigned) [Example 11-4] | 34.6 | 0.02 | 21.1 | 0.15 |  | 
Nc1ncnc2c1ncn2[C@@H]1O[C@@H]2COP(=O)(S)O[C@@H]3[C@H](O)[C@@H](COP(=O)(O)O[C@H]2[C@H]1F)O[C@H]3n1nnc2c([N+](=O)[O-])cccc21 (single isomer, unassigned) [Example 5-1] |  | 0.01 |  | 0.01 | 7.6 | 3.5
Nc1ncnc2c1ncn2[C@@H]1O[C@@H]2COP(=O)(S)O[C@@H]3[C@H](F)[C@@H](COP(=O)(S)O[C@H]2[C@H]1F)O[C@H]3n1nnc2c([N+](=O)[O-])cccc21 (single isomer, unassigned) [Example 11-3] | 9.7 | 0.01 | 4 | 0.05 |  | 
NC(=O)c1cccc2c1nnn2[C@@H]1O[C@@H]2COP(=O)(O)O[C@H]3[C@@H](F)[C@H](n4cnc5c(N)ncnc54)O[C@@H]3COP(=O)(S)O[C@@H]1[C@@H]2F (single isomer, unassigned) [Example 6-2] | 36.8 | 0.004 | 8.8 | 0.05 |  | 
Nc1ncnc2c1ncn2[C@@H]1O[C@@H]2COP(=O)(S)O[C@@H]3[C@H](O)[C@@H](COP(=O)(S)O[C@H]2[C@H]1F)O[C@H]3n1nnc2c(C(F)(F)F)cccc21 (single isomer, unassigned) [Example 9-2] | 15.7 | 0.01 | 7.9 | 0.13 |  | 
Nc1ncnc2c1ncn2[C@@H]1O[C@@H]2COP(=O)(S)O[C@@H]3[C@H](O)[C@@H](COP(=O)(S)O[C@H]2[C@H]1F)O[C@H]3n1nnc2c([N+](=O)[O-])cccc21 (single isomer, unassigned) [Example 7-3] | 15.3 | 0.01 | 7.2 | 0.06 |  | 
Nc1ncnc2c1ncn2[C@@H]1O[C@@H]2COP(=O)(S)O[C@@H]3[C@H](O)[C@@H](COP(=O)(S)O[C@H]2[C@H]1F)O[C@H]3n1nnc2c(C(F)(F)F)cccc21 (single isomer, unassigned) [Example 9-3] | > 100 | 0.04 | 69.4 | 0.9 |  | 
